Experimental data from US20240254087A1, “SELECTIVE, PARTIAL, AND ARRESTIN-BIASED 5-HT2A AGONISTS WITH UTILITY IN VARIOUS DISORDERS” (Saint Joseph's University, priority 2021, published 2024).
Read-outs that look alike come from different tables or passages of the source.

Key:
Set-up in all cases: expressed in transfected cells; host or cells: HEK293T, transient
5-HT2B = 5-HT2B (Homo sapiens, UniProt P41595); test: BRET Gq dissociation, 5-HT2B; assay type: cell-based
Protocol: (§1) After at least 18-24 hours, transfected cells were plated in poly-lysine coated 96-well white clear bottom cell culture plates in DMEM containing 1% dialyzed FBS at a density of 25-40,000 cells in 200 μL per well and incubated overnight. After approximately 20-24 hours, media was decanted and cells were washed with 60 μL of drug buffer (1×HBSS, 20 mM HEPES, pH 7.4), followed by 60 μL of drug buffer and pre-incubated in a humidified atmosphere at 37° C. before receiving drug stimulation. Drug stimulation was induced by adding 30 μL of a solution of drug (3X) diluted in McCorvy buffer (1×HBSS, 20 mM HEPES, pH 7.4, supplemented with 0.3% BSA fatty acid free, 0.03% ascorbic acid) and plates were incubated at the indicated time and temperature. Fifteen minutes before reading, 10 μL of the RLuc substrate, either coelenterazine h for β-Arrestin recruitment BRET^1 or coelenterazine 400a for Gq dissociation BRET^2 (Prolume/Nanolight, 5 μM final concentration) was addedper well. Plates were read for luminescence at 485 nm and fluorescent eYFP emission at 530 nm for BRET^1 and at 400 nm and fluorescent GFP2 emission at 510 nm for BRET2 at 1 second per well using a Mithras LB940 (Berthold). The BRET ratios of fluorescence/luminescence were calculated per well and were plotted as a function of drug concentration using Graphpad Prism 8 (Graphpad Software Inc., San Diego, CA).

5-HT2A [1] = molecular target: T1, 5-HT2A (Homo sapiens, UniProt P28223); test: cell-based; conditions: for Emax: read-out: 5-HT2A β-arrestin Emax (% 5-HT), BRET, mean ± SEM
Protocol: as §1, with “Plates were read for luminescence at 485 nm and fluorescent eYFP emission at 530 nm for BRET^1 and at 400 nm and fluorescent GFP2 emission at 510 nm for BRET2 at 1 second per well using a Mithras LB940 (Berthold).” left out

5-HT2A [2] = molecular target: T1, 5-HT2A; test: cell-based; conditions: for Emax: read-out: 5-HT2A Gq Emax (% 5-HT), BRET, mean ± SEM
Protocol: as §1, with “Plates were read for luminescence at 485 nm and fluorescent eYFP emission at 530 nm for BRET^1 and at 400 nm and fluorescent GFP2 emission at 510 nm for BRET2 at 1 second per well using a Mithras LB940 (Berthold).” left out

5-HT2C = molecular target: T2, 5-HT2C (Homo sapiens, UniProt P28335); test: BRET Gq dissociation, 5-HT2C; assay type: cell-based; conditions: for Emax: read-out: 5-HT2C Gq Dissociation (BRET) EMAX ± SEM (%5-HT); for EC50: read-out: 5-HT2C Gq Dissociation (BRET) pEC50 ± SEM (converted)
T2 sequence (P28335 33-458): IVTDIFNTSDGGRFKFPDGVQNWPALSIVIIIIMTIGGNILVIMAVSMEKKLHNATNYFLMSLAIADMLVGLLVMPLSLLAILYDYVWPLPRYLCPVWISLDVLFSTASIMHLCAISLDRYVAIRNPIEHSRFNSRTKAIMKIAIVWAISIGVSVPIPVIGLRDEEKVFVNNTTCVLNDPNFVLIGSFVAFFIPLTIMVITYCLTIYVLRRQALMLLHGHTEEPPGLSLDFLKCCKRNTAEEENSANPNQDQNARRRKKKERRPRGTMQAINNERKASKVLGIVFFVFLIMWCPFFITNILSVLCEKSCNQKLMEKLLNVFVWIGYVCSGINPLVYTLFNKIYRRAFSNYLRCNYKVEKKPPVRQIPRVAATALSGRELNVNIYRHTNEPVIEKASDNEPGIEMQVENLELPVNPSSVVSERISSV
Protocol: as §1, with “Plates were read for luminescence at 485 nm and fluorescent eYFP emission at 530 nm for BRET^1 and at 400 nm and fluorescent GFP2 emission at 510 nm for BRET2 at 1 second per well using a Mithras LB940 (Berthold).” left out

[3] = BRET, mean ± SEM, read-out: 5-HT2A β-arrestin recruitment pEC50 (converted)
[4] = BRET, mean ± SEM, read-out: 5-HT2A Gq dissociation pEC50 (converted)

5-HT2B, sequence (P41595 whole entry): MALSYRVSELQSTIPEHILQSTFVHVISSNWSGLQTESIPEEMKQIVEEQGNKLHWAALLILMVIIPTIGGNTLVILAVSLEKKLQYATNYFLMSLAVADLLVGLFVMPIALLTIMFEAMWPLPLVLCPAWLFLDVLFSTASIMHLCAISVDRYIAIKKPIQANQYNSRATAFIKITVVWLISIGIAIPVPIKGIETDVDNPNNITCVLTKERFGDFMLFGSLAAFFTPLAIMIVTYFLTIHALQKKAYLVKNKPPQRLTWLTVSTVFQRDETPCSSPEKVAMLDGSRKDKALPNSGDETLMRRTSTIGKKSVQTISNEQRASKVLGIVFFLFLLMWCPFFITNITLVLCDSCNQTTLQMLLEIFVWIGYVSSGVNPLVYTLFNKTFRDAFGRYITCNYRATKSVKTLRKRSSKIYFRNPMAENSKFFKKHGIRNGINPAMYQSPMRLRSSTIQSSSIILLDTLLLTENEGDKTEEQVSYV
T1 sequence (P28223 whole entry): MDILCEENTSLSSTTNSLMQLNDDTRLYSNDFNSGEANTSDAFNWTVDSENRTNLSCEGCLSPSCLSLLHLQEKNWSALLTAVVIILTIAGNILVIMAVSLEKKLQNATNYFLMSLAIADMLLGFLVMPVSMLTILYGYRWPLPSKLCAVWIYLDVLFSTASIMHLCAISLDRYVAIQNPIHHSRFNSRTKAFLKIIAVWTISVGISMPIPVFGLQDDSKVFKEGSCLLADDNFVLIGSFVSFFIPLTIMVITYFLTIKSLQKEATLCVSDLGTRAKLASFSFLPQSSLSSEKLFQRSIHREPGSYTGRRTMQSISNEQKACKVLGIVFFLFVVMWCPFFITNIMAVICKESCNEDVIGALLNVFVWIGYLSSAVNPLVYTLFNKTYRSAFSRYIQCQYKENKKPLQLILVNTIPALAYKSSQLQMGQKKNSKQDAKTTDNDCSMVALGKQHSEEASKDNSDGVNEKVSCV

SMILES	5-HT2B Gq Dissociation (BRET) EMAX ± SEM (%5-HT) (5-HT2B)	5-HT2B Gq Dissociation (BRET) pEC50 ± SEM (5-HT2B)	EC50 (5-HT2A [1]; [3])	Emax (5-HT2A [1])	EC50 (5-HT2A [2]; [4])	Emax (5-HT2A [2])	Emax (5-HT2C)	EC50 (5-HT2C)	EC50 (5-HT2A [1])	5-HT2A Gq dissociation pEC50 (5-HT2A [2]; BRET, mean ± SEM)	EC50 (5-HT2A [2])	Emax (5-HT2B; read-out: 5-HT2B Gq Dissociation (BRET) EMAX ± SEM (%5-HT))	EC50 (5-HT2B; read-out: 5-HT2B Gq Dissociation (BRET) pEC50 ± SEM (converted))	5-HT2A β-arrestin Emax (% 5-HT) (5-HT2A [1]; BRET, mean ± SEM)	5-HT2A β-arrestin recruitment pEC50 (5-HT2A [1]; BRET, mean ± SEM)	5-HT2A Gq Emax (% 5-HT) (5-HT2A [2]; BRET, mean ± SEM)
COc1cc(OC)c(OC)cc1CCNCc1cccc(C)c1C [(50)]	No activity	No activity	0.00575 µM	73.9 ± 5.4%	0.00347 µM	23.6 ± 1%	30.4 ± 2.7%	0.00155 µM	–	–	–	–	–	–	–	–
COc1cc(Br)c(CCNCc2cccc3ccccc23)cc1OC [(30)]	No activity	No activity	0.00447 µM	65.1 ± 3%	0.0427 µM	32.3 ± 1.6%	81.4 ± 3.4%	0.0661 µM	–	–	–	–	–	–	–	–
COc1cc(OC)c(OC)cc1CCNCc1cccc(-c2ccccc2)c1O [(63)]	No activity	No activity	–	117 ± 14.6%	–	< 10%	79.2 ± 2.6%	0.0513 µM	0.102 µM	No activity	–	–	–	–	–	–
COc1cc(CCNC2CCc3ccccc32)c(OC)cc1C (stereo not drawn) [(83)]	–	–	0.00813 µM	112 ± 11.5%	0.00631 µM	50.7 ± 7%	–	–	–	–	–	–	–	–	–	–
COc1cc(Cl)ccc1CCNCc1cccc2ccccc12 [(34)]	No activity	No activity	–	83.6 ± 3.6%	–	25.2 ± 2%	75.9 ± 1.7%	0.038 µM	–	–	–	–	–	–	–	–
COc1cc(OC)c(OC)cc1CCNCc1cccc(Br)c1O [(48)]	No activity	No activity	0.00813 µM	85 ± 4.8%	0.0204 µM	53.6 ± 1.7%	69.2 ± 6.1%	0.174 µM	–	–	–	–	–	–	–	–
COc1cc(Br)ccc1CCNCc1cccc2ccccc12 [(36)]	No activity	No activity	–	80.2 ± 3.1%	–	26.3 ± 1.2%	76 ± 1.8%	0.0245 µM	–	–	–	–	–	–	–	–
COc1cc(CCNCc2cccc3ccccc23)c(OC)cc1C [25D-N1-Nap (27)]	–	–	–	75.5 ± 2.4%	–	34.3 ± 2.9%	–	–	–	–	–	–	–	–	–	–
COc1cc(OC)c(OC)cc1CCNCc1cccc2cccnc12 [(54)]	No activity	No activity	0.00851 µM	100 ± 3.5%	0.0112 µM	54.3 ± 1.5%	90.5 ± 3.1%	0.0148 µM	–	–	–	–	–	–	–	–
COc1cc(OC)c(OC)cc1CCNCc1cccc(-c2ccccc2)c1 [(62)]	No activity	No activity	0.0562 µM	112 ± 6.2%	–	23.7 ± 2.1%	72.8 ± 5.2%	0.219 µM	–	–	0.182 µM	–	–	–	–	–
COc1cc(OC)c(OC)cc1CCNCc1cccc2c1CCCC2 [(52)]	No activity	No activity	0.00178 µM	65 ± 4.9%	0.00759 µM	43.7 ± 1.1%	43.6 ± 3.8%	0.0347 µM	–	–	–	–	–	–	–	–
COc1cc(Br)cc(OC)c1CCNCc1cccc(C)c1O [(42)]	No activity	No activity	0.000513 µM	78.9 ± 3.7%	0.0011 µM	69.2 ± 1.5%	78.1 ± 1.6%	0.00151 µM	–	–	–	–	–	–	–	–
COc1cc(Br)cc(OC)c1CCNCc1cccc2ccccc12 [(32)]	No activity	No activity	0.00105 µM	85.5 ± 2%	0.00389 µM	33 ± 1.1%	81 ± 1.6%	0.00631 µM	–	–	–	–	–	–	–	–
COc1cc(Br)cc(OC)c1CC(C)NCc1cccc2ccccc12 (stereo not drawn) [(33)]	No activity	No activity	0.0049 µM	98.3 ± 3.3%	0.0316 µM	36.6 ± 1.1%	80.3 ± 2.4%	0.0646 µM	–	–	–	–	–	–	–	–
COc1cc(Br)ccc1CCNCc1cccc(C)c1O [(41)]	No activity	No activity	0.00251 µM	86.6 ± 3.9%	0.00224 µM	68.7 ± 1.3%	72.2 ± 1.6%	0.0049 µM	–	–	–	–	–	–	–	–
COc1cc(CCNCc2cccc(C)c2O)cc(OC)c1Br [(44)]	No activity	No activity	0.0112 µM	66.1 ± 2.8%	0.012 µM	70.4 ± 1.2%	80.2 ± 2.1%	0.00708 µM	–	–	–	–	–	–	–	–
CCOc1ccc(CCNCc2cccc3ccccc23)cc1OC [(37)]	No activity	No activity	–	75.4 ± 2.4%	–	29.3 ± 1.9%	84.5 ± 2.8%	0.263 µM	–	–	–	–	–	–	–	–
COc1cc(OC)c(OC)cc1CCNCc1ccccc1-c1ccco1 [(58)]	–	–	0.0562 µM	112 ± 6.2%	0.0501 µM	51.9 ± 2.2%	94 ± 4%	0.0141 µM	–	–	–	37.6 ± 2%	0.00309 µM	–	–	–
COc1cc(CCNC2CCc3cccc(O)c32)c(OC)cc1C (stereo not drawn) [(84)]	–	–	0.00347 µM	113 ± 4.3%	0.00269 µM	71.9 ± 4.9%	–	–	–	–	–	–	–	–	–	–
COc1cc(CCN)c(OC)cc1Br [Compound 2C-B, reference compound]	97.4 ± 1.4 %5-HT	7.90 ± 0.04	–	–	–	–	–	–	–	8.92 ± 0.03	–	–	–	84.0 ± 1.0 % 5-HT	8.62 ± 0.04	100.8 ± 0.9 % 5-HT
COc1cc(CCNCc2ccccc2-c2ccccc2)c(OC)cc1C [25D-NBPh (28)]	–	–	–	107 ± 4.7%	–	23.2 ± 4.8%	–	–	–	–	–	–	–	–	–	–
COc1cc(OC)c(OC)cc1CCNCc1cccc(I)c1O [(49)]	No activity	No activity	0.0117 µM	80.5 ± 5.5%	0.0145 µM	52.8 ± 1.5%	93.5 ± 3.1%	0.0269 µM	–	–	–	–	–	–	–	–
COc1cc(CCNC2Cc3ccccc3C2)c(OC)cc1C [(85)]	–	–	0.00513 µM	70.9 ± 5.1%	0.0178 µM	53.5 ± 4.3%	–	–	–	–	–	–	–	–	–	–
CN(C)CCc1c[nH]c2ccccc12 [DMT, reference compound]	–	–	–	–	–	–	–	–	–	7.17 ± 0.07	–	–	–	64 ± 3 % 5-HT	7.12 ± 0.13	76 ± 2 % 5-HT
